Data as given in patent publication US20120264902A1 (The Regents of the University of Colorado, a body corporate, priority 2011, published 2012).
≈ marks a conversion by molar mass, not a printed value. Read-outs that look alike come from different tables or passages of the source. Values belong to the compound of their own block, whether it stands above or below them.

Assays:
E. Coli Mach1-T1® = assay: MIC of 3-HP, microaerobic, 96-well, MOPS minimal media (Examples 2 and 4); format: cell-based, Escherichia coli; details: supplement added to MOPS minimal media, 24 hours
E. Coli K12 = format: cell-based, Escherichia coli; details: E. Coli K12, M9 minimal media, control or supplemented, aerobic, 24 hours
[1] = system: Yeast strains, S288 C background; assay: Yeast aerobic MIC evaluation (Tables 13 and 15); format: cell-based; details: Saccharomyces cerevisiae, read-out: Average MIC Assay Result (g/L 3-HP), S288C, SD media, aerobic, MIC of 3-HP with the named supplement (label 3-HP = no supplement)
[2] = system: Yeast strains, S288 C background; assay: Yeast anaerobic MIC evaluation (Tables 14 and 16); format: cell-based, Saccharomyces cerevisiae; details: for MIC: Saccharomyces cerevisiae, read-out: Average MIC Assay Result (g/L 3-HP)
Experimental: The minimum inhibitory concentration (MIC) was determined anaerobically in a 96 well-plate format. […] A 1% (v/v) inoculum was introduced into a 5 ml culture of SD minimal media without vitamins. After the cells reached mid-exponential phase, the culture was diluted to an OD600 of 0.200. The cells were further diluted 1:5 and a 10 μL aliquot was used to inoculate each well of a 96 well plate (˜10^4 cells per well) to total volume of 100 uL. […] Plates were incubated for 72 hours at 30 C. […] Plates were sealed in biobag anaerobic chambers that contained gas generators for anaerobic conditions and incubated for 72 hours at 30 C.

E. Coli BW25113 [3] = assay: MIC evaluation general protocol, E. Coli anaerobic (Tables 7 and 9); format: cell-based; details: for MIC: Escherichia coli, read-out: MIC Assay Result (g/L 3-HP); for % Increase Over Control: MIC vs BW25113 in M9 without supplement
Experimental: The minimum inhibitory concentration (MIC) was determined anerobically in a 96 well-plate format. […] Overnight cultures of strains were grown in triplicate in 5 mL LB (with antibiotic where appropriate). A 1% (v/v) inoculum was introduced into a 5 ml culture of M9 minimal media.
(§1) For the above MIC evaluations, the final results are expressed in chemical agent concentrations determined by analysis of the stock solution by HPLC (i.e., see Subsection Mb).

E. Coli BW25113 [4] = assay: MIC evaluation general protocol, E. Coli aerobic (Tables 6 and 8); format: cell-based; details: for average MIC Assay Result (g/L 3-HP): MIC of 3-HP for strain BW25113 in M9 media with the named supplement(s); for % Increase Over Control: increase of 3-HP MIC vs BW25113 in M9 without supplement
Experimental: The minimum inhibitory concentration (MIC) was determined aerobically in a 96 well-plate format. […] Overnight cultures of strains were grown in triplicate in 5 mL LB (with antibiotic where appropriate). A 1% (v/v) inoculum was introduced into a 5 ml culture of M9 minimal media.
as §1

[5] = Preparation of neutralized 3-HP stock solution (observation at neutral pH); format: physicochemical; details: pH 7, aqueous buffer
From the text: (§2) 3-HP was obtained from TCI America (Portland, Oreg.). Significant acrylic acid and 2-oxydipropionic contamination was observed via HPLC analysis. Samples were subsequently treated by diethyl ether extraction to remove acrylic acid and a portion of the 2-oxydipropionic contaminants. Samples were then neutralized with 10 M NaOH to a final pH of 7.0. […] The working stock solution was used for the selection and MIC evaluations in this example.
as §2, with “selection, growth rates” for “selection”

B. subtilis = assay: MIC evaluation general protocol, B. subtilis aerobic (Table 11); format: cell-based, Bacillus subtilis; details: B. subtilis 168, M9 + glu + trp, growth with 3-HP and the named supplement (label 3-HP = no supplement)
MACH1™-T1® E. Coli = assay: IroK expression study, microaerobic MIC, MOPS minimal media, 1 mM IPTG; format: cell-based; details: IroK expressed from pKK223-3; data not shown
Experimental: The two oligonucleotides were added in a 1:1 ratio and annealed according to standard methodology in a thermal cycler. Ligation of the annealed primer product with the pKK223-3 expression vector (SEQ ID NO:008, Pharmacia, Piscataway, N.J.) was performed with T4 Ligase (Invitrogen, Carlsbad, Calif.) and incubated at 25° C. overnight. The ligation product was then electroporated into competent MACH1™-T1®, plated on LB+ampicillan, and incubated at 37° C. for 24 hours. Plasmids were isolated and confirmed by purification and subsequent restriction digest and sequencing (Macrogen, Rockville, Md.). MICs were then determined corresponding to 1 mM IPTG induction.
The minimum inhibitory concentration (MIC) was determined microaerobically in a 96 well-plate format. Overnight cultures of strains were grown in 5 mL LB (with antibiotic where appropriate). A 1% (v/v) inoculum was introduced into a 15 ml culture of MOPS minimal media. After the cells reached mid-exponential phase, the culture was diluted to an OD600 of 0.200. The cells were further diluted 1:20 and a 10 μL aliquot was used to inoculate each well of a 96 well plate (˜10^4 cells per well).

[6] = BW25113, M9 with supplements at Table 3 levels (or EZ Rich), anaerobic, 24 hours

MIC increases (3-HP) with supplementation (E. Coli Mach1-T1®): 7%
Compound: CCC(=O)C(=O)O [2-oxobutyrate]

Compound: O=C([O-])O.[Na+] [Bicarbonate, sodium bicarbonate]
Minimum inhibitory concentration (MIC) of 3-HP (E. Coli K12): 30 mg/mL

Compound: NC(=O)NCCC[C@H](N)C(=O)O [Citrulline (C)]
MIC [1]: 58 g/L | MIC [2]: 97 g/L (≈ 554 mM)

Compound: O=C(O)c1cccc(O)c1O [Dihydroxybenzoate, 2,3-dihydroxybenzoic acid]
MIC increases (3-HP) with supplementation (E. Coli Mach1-T1®): 33% | MIC (E. Coli BW25113 [3]; [6]): 40 g/L (≈ 260 mM) | % Increase Over Control (E. Coli BW25113 [3]; anaerobic): 33% | average MIC Assay Result (g/L 3-HP) (E. Coli BW25113 [4]): 35 g/L 3-HP | % Increase Over Control (E. Coli BW25113 [4]): 27%

Compound: N[C@@H](CCS)C(=O)O [Homocysteine]
average MIC Assay Result (g/L 3-HP) (E. Coli BW25113 [4]): 30 g/L 3-HP | % Increase Over Control (E. Coli BW25113 [4]): 9% | % Increase Over Control ([2]; S288C, SD media, anaerobic, MIC with supplement vs no supplement): 7% | MIC [2]: 40 g/L (≈ 296 mM)

Compound: N[C@@H](CCO)C(=O)O [Homoserine]
MIC increases (3-HP) with supplementation (E. Coli Mach1-T1®): 33% | MIC (E. Coli BW25113 [3]; [6]): 30 g/L (≈ 252 mM) | % Increase Over Control (E. Coli BW25113 [3]; anaerobic): 0%

Compound: CC[C@H](C)[C@H](N)C(=O)O [Isoleucine (B)]
MIC [2]: 38 g/L (≈ 290 mM)

Compound: NCCCC[C@H](N)C(=O)O [Lysine]
MIC (E. Coli BW25113 [3]; BW25113, 24 h): 41.7 g/L (≈ 285 mM) | MIC [2]: 45 g/L (≈ 308 mM)

Compound: CSCC[C@H](N)C(=O)O [Methionine]
MIC (E. Coli BW25113 [3]; [6]): 42.8 g/L (≈ 287 mM) | % Increase Over Control (E. Coli BW25113 [3]; anaerobic): 43%

Compound: N[C@@H](Cc1ccccc1)C(=O)O [Phenylalanine]
MIC increases (3-HP) with supplementation (E. Coli Mach1-T1®): 33% | MIC (E. Coli BW25113 [3]; [6]): 32.1 g/L (≈ 194 mM) | % Increase Over Control (E. Coli BW25113 [3]; anaerobic): 7%

Compound: NCCCCN [Putrescine]
MIC (E. Coli BW25113 [3]; [6]): 35 g/L (≈ 397 mM) | % Increase Over Control (E. Coli BW25113 [3]; anaerobic): 17%

Compound: N[C@@H](CO)C(=O)O [Serine]
MIC (E. Coli BW25113 [3]; [6]): 32.1 g/L (≈ 305 mM) | MIC [2]: 45 g/L (≈ 428 mM)

Compound: O=C(O)C1=C[C@@H](O)[C@@H](O)[C@H](O)C1 [Shikimate (A)]
MIC [1]: 80 g/L | MIC [2]: 60 g/L (≈ 345 mM)

Compound: NCCCCNCCCN [Spermidine]
MIC (E. Coli BW25113 [3]; [6]): 35 g/L (≈ 241 mM) | % Increase Over Control (E. Coli BW25113 [3]; anaerobic): 17%

Compound: O=C(O)CCO [Strain 3-HP, 3-hydroxypropionic acid]
solubility [5]: > 35 mg/mL | Avg 24 hr ΔOD600 (B. subtilis): 0.04

Compound: C[C@@H](O)[C@H](N)C(=O)O [Threonine]
MIC increases (3-HP) with supplementation (E. Coli Mach1-T1®): 3%

Compound: N[C@@H](Cc1c[nH]c2ccccc12)C(=O)O [Tryptophan]
MIC increases (3-HP) with supplementation (E. Coli Mach1-T1®): 33%

Compound: N[C@@H](Cc1ccc(O)cc1)C(=O)O [Tyrosine]
MIC increases (3-HP) with supplementation (E. Coli Mach1-T1®): 40%

Compound: CC(=O)O [acetic]
MICs of other organic acids with IroK expression (MACH1™-T1® E. Coli): unchanged

Compound: C=CC(=O)O [acrylic, acrylic acid]
MICs of other organic acids with IroK expression (MACH1™-T1® E. Coli): unchanged

Compound: Cl.NC1CCSC1=O (stereo not drawn) [homocysteine thiolactone hydrochloride]
MIC increases (3-HP) with supplementation (E. Coli Mach1-T1®): 60%

Compound: CC(O)C(=O)O (stereo not drawn) [lactic]
MICs of other organic acids with IroK expression (MACH1™-T1® E. Coli): unchanged

Compound: Nc1ccc(C(=O)O)cc1 [p-aminobenzoate]
MIC increases (3-HP) with supplementation (E. Coli Mach1-T1®): 7%

Compound: NNC(=O)c1ccc(O)cc1 [p-hydroxybenzoic acid hydrazide]
MIC increases (3-HP) with supplementation (E. Coli Mach1-T1®): 33%

Compound: Cc1ncc(CO)c(CO)c1O.Cl [pyridoxine hydrochloride]
MIC increases (3-HP) with supplementation (E. Coli Mach1-T1®): 0%

Compound: Tetrahydrofolate
MIC Assay Result (g/L 3-HP) (E. Coli BW25113 [3]; [6]): 40.0 g/L | % Increase Over Control (E. Coli BW25113 [3]; anaerobic): 33% | average MIC Assay Result (g/L 3-HP) (E. Coli BW25113 [4]): 30 g/L 3-HP | % Increase Over Control (E. Coli BW25113 [4]): 9%
